# Tests used:
# [1] = tested on: lipase enzyme (Enzyme Innovation Addclean LP L); assay: Reaction rate measurement in solution in the presence of a hydrolase (GC/MS); assay type: biochemical
# Method: The release kinetics of 3,7-dimethyl-2,6-octadien-1-yl hexadecanoate (comparative compound) and (2E,6Z)-nona-2,6-dien-1-yl hexadecanoate (invention's compound) in the presence of a hydrolase were compared.
# In order to compare the reaction rate of the esters, the amount of 3,7-dimethyl-2,6-octadien-1-yl hexadecanoate and (2E,6Z)-nona-2,6-dien-1-yl hexadecanoate and the amount of ethyl hexadecanoate over time were measured by GC/MS. The ethyl hexadecanoate was formed by the reaction between the hexadecanoic acid released and the ethanol.
# Enzyme Solution Preparation: The lipase enzyme source used was Enzyme Innovation Addclean LP L at an activity of 20000 Lipase Units/g. A stock solution of 100 LU/ml was prepared and diluted in serial dilution to working concentrations as follows:
# The solutions comprising 3,7-dimethyl-2,6-octadien-1-yl hexadecanoate or (2E,6Z)-nona-2,6-dien-1-yl hexadecanoate (also called palmitate ester solutions) were prepared by dissolving in ethanol to 5% by weight. These were subsequently diluted to working conditions of the experiment.
# In a 2 ml Agilent GC vial (Agilent 5183-2068), 50 ul of 100 LU/ml solution was added with a micropipette. 100 ul deionized water was added to ensure continued hydrolysis. Samples to were prepared for each time condition, replicate, and palmitate ester solutions of interest because the reaction will be stopped and only measured once at 0 hours, 0.5 hours and 1 hour. […]
# The palmitate esters were prepared by dissolving in ethanol to 5% by weight (stock). Palmitate ester solution was further diluted to 0.2% and 50 ul added to all sample vials above and recorded as time zero. […] Samples were analyzed by GC/MS direct injection methodology as follows.
# GC-MS analyses were performed on an Agilent Gas Chromatograph system 7890B coupled to an Agilent Mass Selective Detector 5977B and equipped with a Gerstel MPS autosampler or equivalent. […] External calibration curves of (2E,6Z)-nona-2,6-dien-1-yl hexadecanoate and 3,7-dimethyl-2,6-octadien-1-yl hexadecanoate were prepared at 10-500 ppm was prepared and sample signal quantified in ppm.
# [2] = tested on: Hydrolase (Lipase solution 0.100 LU/ml); assay: Fragrance evolution on Tzero lids (dynamic headspace), palmitate esters; assay type: biochemical
# Method: To further investigate the release kinetics of palmitate esters in the presence of hydrolases, an in-vitro assay measuring the functional perfume ingredient in the gaseous phase was devised.
# Three palmitate esters releasing respectively (2E,6Z)-nona-2,6-dien-1-ol (corresponding to invention's compound) and 3,7-dimethyl-2,6-octadien-1-ol (corresponding to comparative compound) were tested in the presence of physiologically relevant concentration of Hydrolase (0.1 LU/ml) as follows. 2.5 ul Lipase solution (0.100 LU/ml) was added to Tzero Lids TA [Part no. 901671.901] crucibles. 2.5 ul of 0%, […], 0.1%, […] and 1% solution in ethanol of palmitate esters were added to the same crucibles and placed on preheated precision hotplate to 32C. Additional aliquots of 2.5 ul water were added to the crucibles at 1 h and 4 h to simulate humidity on skin and facilitate hydrolysis. The crucibles were transferred to 20 ml headspace vials after […] at 32C.
# Analysis performed by Dynamic Headspace using Tenax TA trap outlined as follows. GC-MS-DHS analyses were performed on an Agilent Gas Chromatograph system 7890B coupled to an Agilent Mass Selective Detector 5977B and equipped with a Gerstel MPS autosampler. […]
# [3] = Paneling of released fragrance alcohols on glass slides (sensory panel)
# Method: Evaporation kinetics using 76 mm×51 mm glass slides was carried out. Prazitherm precision hotplate was pre-heated to 32 degrees Celsius for 30 minutes. Three glass slides were placed on the precision hotplate. Each glass slide is labeled with a unique code so that its identity is unknown to the panelists. Using a Gilson Microman M25 positive displacement pipette, […] of 0.1 LU lipase solution was dosed directly to the center of one of the glass slides. Then 20 μl of 1% (2E,6Z)-nona-2,6-dien-1-yl hexadecanoate was dosed very slowly to the lipase droplet. Once all the sample solution was applied onto the glass slide, the applied glass slide was evaporated on the precision hotplate for 4 hours at 32 degrees Celsius. Sample preparation for 1% (Z)-3-hexen-1-yl hexadecanoate solution and 1% 3,7-dimethyl-2,6-octadien-1-yl hexadecanoate solution were done the same way. Sample preparations for all three solutions were repeated for duplicates to replace each glass slide twice during the sensory panel period—the limit for a glass slide sample set (with 3 different glass slide samples) was 10 evaluations. At the 4-hour time interval, a spray bottle filled with deionized water was primed and then water was sprayed directly onto each glass slide once. One spray was enough to cover the glass slide. All glass slides were allowed to sit for 10 minutes before the sensory panel so the water was absorbed by the evaporated mixtures to represent humidity on skin. For evaluation, the panelist picks up the treated glass slides, smells the center and rates the intensity of each slide on an evaluation sheet.
# In one test, the panelists rated odor intensity on a scale of 1 to 7 for each glass slide evaluated under release by the hydrolase at time 4 hours. The second approach was the so-called forced choice where panelists were forced to select the most intense out of the three […] after release with the Hydrolase at 4 hours at 0.1 LU/ml.
# [4] = tested on: Hydrolase (Lipase solution 0.100 LU/ml); assay: Fragrance evolution on Tzero lids (dynamic headspace) in a personal care base; assay type: biochemical; conditions: day cream base O/W emulsion with 1 wt% compound, absence of hydrolase (water control), 32C, 4 hours
# Method: To confirm fragrance release in presence of personal care base, personal care base was formulated with invention's compound and analyzed by an in-vitro assay measuring the functional perfume ingredient in the gaseous phase.
# Testing was done in the presence of physiologically relevant concentration of Hydrolase (0.1 LU/ml) as follows. […] 901671.901] crucibles. 2.5 ul of personal care base with (2E,6Z)-nona-2,6-dien-1-yl hexadecanoate was added to the same crucibles and placed on preheated precision hotplate to 32C. Additional aliquots of 2.5 ul water were added to the crucibles at 1 h and 4 h to simulate humidity on skin and facilitate hydrolysis. The crucibles were transferred to 20 ml headspace vials after 4 hours at 32C.
# Analysis performed by Dynamic Headspace using Tenax TA trap outlined as follows. GC-MS-DHS analyses were performed on an Agilent Gas Chromatograph system 7890B coupled to an Agilent Mass Selective Detector 5977B and equipped with a Gerstel MPS autosampler. Additionally equipment of automated Gerstel Dynamic Headspace System, ATEX air sampling tube gripper for 20 mL headspace vials with a metal screw cap (preassembled with 1.3 mm PTFE septa) and Gerstel CIS 4C cryostatic cooling device CCD2 (Inlet 2) mounted with Gerstel TDU2 thermal desorption unit. […]
# [5] = glass slide, 0.1 LU/ml lipase, 4 hours
compound,measurement,setting,value
"CC/C=C\CC/C=C/COC(=O)CCCCCCCCCCCCCCC [(2E,6Z)-nona-2,6-dien-1-yl hexadecanoate]",total rate of lipase-catalyzed reaction,"[1]; compared with 3,7-dimethyl-2,6-octadien-1-yl hexadecanoate",higher total rate of lipase-catalyzed reaction
same,concentration of the ester in solution in function of time,"[1]; lipase 100 LU/ml solution, 32C, 0, 0.5 and 1 hour, GC/MS, compared with 3,7-dimethyl-2,6-octadien-1-yl hexadecanoate (FIG. 1)","decreased more rapid than the concentration of 3,7-dimethyl-2,6-octadien-1-yl hexadecanoate"
same,"release of the alcohol, confirmed by increase of ethyl hexadecanoate","[1]; lipase, ethanol present, 32C, up to 1 hour, compared with 3,7-dimethyl-2,6-octadien-1-ol (FIG. 2)","faster release of (2E,6Z)-nona-2,6-dien-1-ol compared to 3,7-dimethyl-2,6-octadien-1-ol"
same,rate of release of fragrance material into headspace,"[2]; Hydrolase 0.1 LU/ml, 32C, 4 hours, on Tzero lids (FIG. 3)","higher rate than 3,7-dimethyl-2,6-octadien-1-yl hexadecanoate"
same,odor intensity rated by panelists on a scale of 1 to 7,"[3]; 1% solution on glass slide, 0.1 LU/ml lipase, 4 hours at 32 degrees Celsius, versus the two other hexadecanoates (FIG. 6)",significantly more intense
same,perception / impression by the panelists,[3]; [5],the most intense impression
same,forced choice: panelists who selected the sample as the most intense,"[3]; glass slide, Hydrolase 0.1 LU/ml, 4 hours, three esters compared (FIG. 7)",20/21
same,"release of (2E,6Z)-nona-2,6-dien-1-ol in headspace from personal care base",[4],no release is observed
"CC/C=C\CCOC(=O)CCCCCCCCCCCCCCC [(Z)-3-hexen-1-yl hexadecanoate, reference compound]","release rate compared with 3,7-dimethyl-2,6-octadien-1-yl hexadecanoate","[2]; stated in Example 6, test not named","release faster than 3,7-dimethyl-2,6-octadien-1-yl hexadecanoate"
same,perception / impression by the panelists,[3]; [5],not well perceived by the panelists
